From PubChem BioAssay (NCI)
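Test compounds were applied to cells in 96-well plates for 48 hours at 5 doses. The concentration for 50% growth inhibition is given as GI50. TGI denotes the concentration required for complete inhibition of growth.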

Columns and labels:
Experiment in all cases: NCI tumour cell line growth inhibition, 48 h
NCI-H23 lung = test system: NCI-H23 lung
786-0 renal = test system: 786-0 renal
HT29 colon = test system: HT29 colon
NCI-H522 lung = test system: NCI-H522 lung
U251 CNS = test system: U251 CNS
MDA-MB-468 breast = test system: MDA-MB-468 breast
K-562 leukemia = test system: K-562 leukemia
MALME-3M melanoma = test system: MALME-3M melanoma
HOP-92 NSCLC = test system: HOP-92 NSCLC
HL-60(TB) leukemia = test system: HL-60(TB) leukemia
LOX IMVI melanoma = test system: LOX IMVI melanoma
HCT-15 colon = test system: HCT-15 colon
SF-268 CNS = test system: SF-268 CNS
BT-549 breast = test system: BT-549 breast
SNB-19 CNS = test system: SNB-19 CNS
IGROV1 ovarian = test system: IGROV1 ovarian
PC-3 prostate = test system: PC-3 prostate
OVCAR-4 ovarian = test system: OVCAR-4 ovarian
NCI-H226 lung = test system: NCI-H226 lung
CAKI-1 renal = test system: CAKI-1 renal
NCI/ADR-RES ovarian = test system: NCI/ADR-RES ovarian
HOP-62 NSCLC = test system: HOP-62 NSCLC
OVCAR-3 ovarian = test system: OVCAR-3 ovarian
SK-MEL-28 melanoma = test system: SK-MEL-28 melanoma
TK-10 renal = test system: TK-10 renal
KM12 colon = test system: KM12 colon
MDA-MB-435 = test system: MDA-MB-435
RPMI-8226 leukemia = test system: RPMI-8226 leukemia

Compound: CC[C@]12C=CCN3CC[C@@]4(c5ccc(OC)cc5N(C)[C@H]4[C@@](O)(C(=O)OC)[C@@H]1OC(=O)CCC[P+](c1ccc(F)cc1)(c1ccc(F)cc1)c1ccc(F)cc1)[C@@H]32
- TGI (NCI-H23 lung): > 48.5 µM
- GI50 (786-0 renal): > 48.5 µM
- TGI (786-0 renal): > 48.5 µM
- GI50 (HT29 colon): 12.5 µM
- TGI (HT29 colon): > 48.5 µM
- GI50 (NCI-H522 lung): 3.88 µM
- TGI (NCI-H522 lung): 32 µM
- GI50 (U251 CNS): 9.36 µM
- TGI (U251 CNS): > 48.5 µM
- GI50 (MDA-MB-468 breast): 1.5 µM
- TGI (MDA-MB-468 breast): 6.3 µM
- GI50 (K-562 leukemia): 9.83 µM
- TGI (K-562 leukemia): > 48.5 µM
- GI50 (MALME-3M melanoma): 6.85 µM
- TGI (MALME-3M melanoma): 14 µM
- GI50 (HOP-92 NSCLC): 5.44 µM
- TGI (HOP-92 NSCLC): 19.9 µM
- GI50 (HL-60(TB) leukemia): 1.77 µM
- TGI (HL-60(TB) leukemia): 7.82 µM
- GI50 (LOX IMVI melanoma): 16.6 µM
- TGI (LOX IMVI melanoma): > 48.5 µM
- GI50 (HCT-15 colon): > 48.5 µM
- TGI (HCT-15 colon): > 48.5 µM
- GI50 (SF-268 CNS): 15 µM
- TGI (SF-268 CNS): > 48.5 µM
- GI50 (BT-549 breast): 8.13 µM
- TGI (BT-549 breast): 26.5 µM
- GI50 (SNB-19 CNS): 11.4 µM
- TGI (SNB-19 CNS): > 48.5 µM
- GI50 (IGROV1 ovarian): 7.09 µM
- TGI (IGROV1 ovarian): 18.2 µM
- GI50 (PC-3 prostate): 12.6 µM
- TGI (PC-3 prostate): > 48.5 µM
- GI50 (OVCAR-4 ovarian): 16.2 µM
- TGI (OVCAR-4 ovarian): > 48.5 µM
- GI50 (NCI-H226 lung): 24.2 µM
- TGI (NCI-H226 lung): > 48.5 µM
- GI50 (CAKI-1 renal): > 48.5 µM
- TGI (CAKI-1 renal): > 48.5 µM
- GI50 (NCI/ADR-RES ovarian): > 48.5 µM
- TGI (NCI/ADR-RES ovarian): > 48.5 µM
- GI50 (HOP-62 NSCLC): 20.5 µM
- TGI (HOP-62 NSCLC): > 48.5 µM
- GI50 (OVCAR-3 ovarian): 6.47 µM
- TGI (OVCAR-3 ovarian): 40.7 µM
- GI50 (SK-MEL-28 melanoma): 5.34 µM
- TGI (SK-MEL-28 melanoma): 11.6 µM
- GI50 (TK-10 renal): 22.2 µM
- TGI (TK-10 renal): > 48.5 µM
- GI50 (KM12 colon): 8.96 µM
- TGI (KM12 colon): 20.6 µM
- GI50 (MDA-MB-435): 8.14 µM
- TGI (MDA-MB-435): 18.5 µM
- GI50 (RPMI-8226 leukemia): 2.05 µM
- TGI (RPMI-8226 leukemia): 9.33 µM
